# Test results published in article PMC5433425 (PeerJ, 2017).
# “And” between values parts separate entries of the source, which are not always exact repeats. Equal values may be shown once. Read-outs that look alike come from different tables or passages of the source.
# Tests used:
# [1] = system: E. coli AG100; assay: Time-kill kinetics (CFU); type: cell-based, Escherichia coli
# Description: A drug-free control was included in the assay to monitor the normal growth of the strain. Cultures were sampled for CFU determination after 0, 1, 2, 3, 4, 5, 6, and 24 h of incubation at 37 °C with shaking. For CFU determination, 10-fold serial dilutions were made in a saline solution and 20 µl of each solution was placed onto the surface of a Mueller–Hinton agar plate. The colonies were counted after the incubation of the plates at 37 °C for 24 h. The limit of detection of the assay was 17 CFU/ml. Each assay was repeated at least twice.
# [2] = system: Klebsiella pneumoniae FF4891; assay: MIC, antibacterial specificity; type: cell-based
# [3] = system: Salmonella enterica serovar Enteritidis NCTC13349; assay: MIC, antibacterial specificity; type: cell-based
smiles,measurement,setting,value
"CCCOc1ccc(-c2cc(OCCN3CCNCC3)c3ccccc3n2)cc1 [PQQ4R, 4-(2-(piperazin-1-yl)ethoxy)-2-(4-propoxyphenyl) quinolone]",time of exposure to reduce viability to zero,[1],3 h and 4 h
same,MBC (minimal bactericidal concentration),[1]; AG100,640 µM
same,viability,"[1]; AG100, 80 μM (1/8 MIC)",100%
same,viability,"[1]; AG100, 160 μM (1/4 MIC)",98%
same,viability,"[1]; AG100, 320 μM (1/2 MIC)",92%
same,viability,"[1]; AG100, 640 μM (MIC)",0%
same,CFU count Log10,"[1]; AG100, 1/2 MIC, T1 (1 h)",3.836
same,CFU count Mean,"[1]; AG100, 1/2 MIC, T1 (1 h)",6.8E+03
same,CFU count Log10,"[1]; AG100, 1/2 MIC, T2 (2 h)",3.5272
same,CFU count Mean,"[1]; AG100, 1/2 MIC, T2 (2 h)",3.4E+03
same,CFU count Log10,"[1]; AG100, 1/2 MIC, T3 (3 h)",3.503
same,CFU count Mean,"[1]; AG100, 1/2 MIC, T3 (3 h)",3.2E+03
same,CFU count Log10,"[1]; AG100, 1/2 MIC, T4 (4 h)",3.423
same,CFU count Mean,"[1]; AG100, 1/2 MIC, T4 (4 h)",2.6E+03
same,CFU count Log10,"[1]; AG100, 1/2 MIC, T5 (5 h)",2.79
same,CFU count Mean,"[1]; AG100, 1/2 MIC, T5 (5 h)",6.2E+02
same,CFU count Log10,"[1]; AG100, 1/2 MIC, T6 (6 h)",2.222
same,CFU count Mean,"[1]; AG100, 1/2 MIC, T6 (6 h)",1.7E+02
same,CFU count Mean,"[1]; AG100, 1/2 MIC, T24 (24 h)",2.0E+13
same,CFU count - Strain dilution,"[1]; AG100, 2xMIC, T1 (1 h)",0
same,CFU count - absolute values,"[1]; AG100, 2xMIC, T1 (1 h)",0
same,CFU count Log10,"[1]; AG100, 2xMIC, T1 (1 h)",0
same,CFU count Mean,"[1]; AG100, 2xMIC, T1 (1 h)",0.0E+00
same,CFU count - Strain dilution,"[1]; AG100, 2xMIC, T2 (2 h)",0
same,CFU count - absolute values,"[1]; AG100, 2xMIC, T2 (2 h)",0
same,CFU count Log10,"[1]; AG100, 2xMIC, T2 (2 h)",0
same,CFU count Mean,"[1]; AG100, 2xMIC, T2 (2 h)",0.0E+00
same,CFU count - Strain dilution,"[1]; AG100, 2xMIC, T3 (3 h)",0
same,CFU count - absolute values,"[1]; AG100, 2xMIC, T3 (3 h)",0
same,CFU count Log10,"[1]; AG100, 2xMIC, T3 (3 h)",0
same,CFU count Mean,"[1]; AG100, 2xMIC, T3 (3 h)",0.0E+00
same,CFU count - Strain dilution,"[1]; AG100, 2xMIC, T4 (4 h)",0
same,CFU count - absolute values,"[1]; AG100, 2xMIC, T4 (4 h)",0
same,CFU count Log10,"[1]; AG100, 2xMIC, T4 (4 h)",0
same,CFU count Mean,"[1]; AG100, 2xMIC, T4 (4 h)",0.0E+00
same,CFU count - Strain dilution,"[1]; AG100, 2xMIC, T5 (5 h)",0
same,CFU count - absolute values,"[1]; AG100, 2xMIC, T5 (5 h)",0
same,CFU count Log10,"[1]; AG100, 2xMIC, T5 (5 h)",0
same,CFU count Mean,"[1]; AG100, 2xMIC, T5 (5 h)",0.0E+00
same,CFU count - Strain dilution,"[1]; AG100, 2xMIC, T6 (6 h)",0
same,CFU count - absolute values,"[1]; AG100, 2xMIC, T6 (6 h)",0
same,CFU count Log10,"[1]; AG100, 2xMIC, T6 (6 h)",0
same,CFU count Mean,"[1]; AG100, 2xMIC, T6 (6 h)",0.0E+00
same,CFU count - Strain dilution,"[1]; AG100, 2xMIC, T24 (24 h)",0
same,CFU count - absolute values,"[1]; AG100, 2xMIC, T24 (24 h)",0
same,CFU count Log10,"[1]; AG100, 2xMIC, T24 (24 h)",0
same,CFU count Mean,"[1]; AG100, 2xMIC, T24 (24 h)",0.0E+00
same,time of exposure to reduce viability to zero,"[1]; AG100, 2× MIC",1 h
same,CFU count - Strain dilution,"[1]; AG100, 4xMIC, T1 (1 h)",0
same,CFU count - absolute values,"[1]; AG100, 4xMIC, T1 (1 h)",0
same,CFU count Log10,"[1]; AG100, 4xMIC, T1 (1 h)",0
same,CFU count Mean,"[1]; AG100, 4xMIC, T1 (1 h)",0.0E+00
same,CFU count - Strain dilution,"[1]; AG100, 4xMIC, T2 (2 h)",0
same,CFU count - absolute values,"[1]; AG100, 4xMIC, T2 (2 h)",0
same,CFU count Log10,"[1]; AG100, 4xMIC, T2 (2 h)",0
same,CFU count Mean,"[1]; AG100, 4xMIC, T2 (2 h)",0.0E+00
same,CFU count - Strain dilution,"[1]; AG100, 4xMIC, T3 (3 h)",0
same,CFU count - absolute values,"[1]; AG100, 4xMIC, T3 (3 h)",0
same,CFU count Log10,"[1]; AG100, 4xMIC, T3 (3 h)",0
same,CFU count Mean,"[1]; AG100, 4xMIC, T3 (3 h)",0.0E+00
same,CFU count - Strain dilution,"[1]; AG100, 4xMIC, T4 (4 h)",0
same,CFU count - absolute values,"[1]; AG100, 4xMIC, T4 (4 h)",0
same,CFU count Log10,"[1]; AG100, 4xMIC, T4 (4 h)",0
same,CFU count Mean,"[1]; AG100, 4xMIC, T4 (4 h)",0.0E+00
same,CFU count - Strain dilution,"[1]; AG100, 4xMIC, T5 (5 h)",0
same,CFU count - absolute values,"[1]; AG100, 4xMIC, T5 (5 h)",0
same,CFU count Log10,"[1]; AG100, 4xMIC, T5 (5 h)",0
same,CFU count Mean,"[1]; AG100, 4xMIC, T5 (5 h)",0.0E+00
same,CFU count - Strain dilution,"[1]; AG100, 4xMIC, T6 (6 h)",0
same,CFU count - absolute values,"[1]; AG100, 4xMIC, T6 (6 h)",0
same,CFU count Log10,"[1]; AG100, 4xMIC, T6 (6 h)",0
same,CFU count Mean,"[1]; AG100, 4xMIC, T6 (6 h)",0.0E+00
same,CFU count - Strain dilution,"[1]; AG100, 4xMIC, T24 (24 h)",0
same,CFU count - absolute values,"[1]; AG100, 4xMIC, T24 (24 h)",0
same,CFU count Log10,"[1]; AG100, 4xMIC, T24 (24 h)",0
same,CFU count Mean,"[1]; AG100, 4xMIC, T24 (24 h)",0.0E+00
same,CFU count - Strain dilution,"[1]; AG100, 8xMIC, T1 (1 h)",0
same,CFU count - absolute values,"[1]; AG100, 8xMIC, T1 (1 h)",0
same,CFU count Log10,"[1]; AG100, 8xMIC, T1 (1 h)",0
same,CFU count Mean,"[1]; AG100, 8xMIC, T1 (1 h)",0.0E+00
same,CFU count - Strain dilution,"[1]; AG100, 8xMIC, T2 (2 h)",0
same,CFU count - absolute values,"[1]; AG100, 8xMIC, T2 (2 h)",0
same,CFU count Log10,"[1]; AG100, 8xMIC, T2 (2 h)",0
same,CFU count Mean,"[1]; AG100, 8xMIC, T2 (2 h)",0.0E+00
same,CFU count - Strain dilution,"[1]; AG100, 8xMIC, T3 (3 h)",0
same,CFU count - absolute values,"[1]; AG100, 8xMIC, T3 (3 h)",0
same,CFU count Log10,"[1]; AG100, 8xMIC, T3 (3 h)",0
same,CFU count Mean,"[1]; AG100, 8xMIC, T3 (3 h)",0.0E+00
same,CFU count - Strain dilution,"[1]; AG100, 8xMIC, T4 (4 h)",0
same,CFU count - absolute values,"[1]; AG100, 8xMIC, T4 (4 h)",0
same,CFU count Log10,"[1]; AG100, 8xMIC, T4 (4 h)",0
same,CFU count Mean,"[1]; AG100, 8xMIC, T4 (4 h)",0.0E+00
same,CFU count - Strain dilution,"[1]; AG100, 8xMIC, T5 (5 h)",0
same,CFU count - absolute values,"[1]; AG100, 8xMIC, T5 (5 h)",0
same,CFU count Log10,"[1]; AG100, 8xMIC, T5 (5 h)",0
same,CFU count Mean,"[1]; AG100, 8xMIC, T5 (5 h)",0.0E+00
same,CFU count - Strain dilution,"[1]; AG100, 8xMIC, T6 (6 h)",0
same,CFU count - absolute values,"[1]; AG100, 8xMIC, T6 (6 h)",0
same,CFU count Log10,"[1]; AG100, 8xMIC, T6 (6 h)",0
same,CFU count Mean,"[1]; AG100, 8xMIC, T6 (6 h)",0.0E+00
same,CFU count - Strain dilution,"[1]; AG100, 8xMIC, T24 (24 h)",0
same,CFU count - absolute values,"[1]; AG100, 8xMIC, T24 (24 h)",0
same,CFU count Log10,"[1]; AG100, 8xMIC, T24 (24 h)",0
same,CFU count Mean,"[1]; AG100, 8xMIC, T24 (24 h)",0.0E+00
same,CFU count Log10,"[1]; AG100, MIC, T1 (1 h)",3.007
same,CFU count Mean,"[1]; AG100, MIC, T1 (1 h)",1.0E+03
same,CFU count Log10,"[1]; AG100, MIC, T2 (2 h)",2.336
same,CFU count Mean,"[1]; AG100, MIC, T2 (2 h)",2.2E+02
same,CFU count Log10,"[1]; AG100, MIC, T3 (3 h)",1.222
same,CFU count Mean,"[1]; AG100, MIC, T3 (3 h)",1.7E+01
same,CFU count - Strain dilution,"[1]; AG100, MIC, T4 (4 h)",0
same,CFU count - absolute values,"[1]; AG100, MIC, T4 (4 h)",0
same,CFU count Log10,"[1]; AG100, MIC, T4 (4 h)",0
same,CFU count Mean,"[1]; AG100, MIC, T4 (4 h)",0.0E+00
same,CFU count - Strain dilution,"[1]; AG100, MIC, T5 (5 h)",0
same,CFU count - absolute values,"[1]; AG100, MIC, T5 (5 h)",0
same,CFU count Log10,"[1]; AG100, MIC, T5 (5 h)",0
same,CFU count Mean,"[1]; AG100, MIC, T5 (5 h)",0.0E+00
same,CFU count - Strain dilution,"[1]; AG100, MIC, T6 (6 h)",0
same,CFU count - absolute values,"[1]; AG100, MIC, T6 (6 h)",0
same,CFU count Log10,"[1]; AG100, MIC, T6 (6 h)",0
same,CFU count Mean,"[1]; AG100, MIC, T6 (6 h)",0.0E+00
same,CFU count - Strain dilution,"[1]; AG100, MIC, T24 (24 h)",0
same,CFU count - absolute values,"[1]; AG100, MIC, T24 (24 h)",0
same,CFU count Log10,"[1]; AG100, MIC, T24 (24 h)",0
same,CFU count Mean,"[1]; AG100, MIC, T24 (24 h)",0.0E+00
same,reduction in bacterial viability,"[1]; AG100, half MIC",approx. 1 log
same,MIC,[2],>256 µg/mL
same,MIC,[3],256 µg/mL
